Data published in patent US20060024691A1, “Novel pathways in the etiology of cancer” (Buck Institute for Age Research, priority 2004, published 2006).
Entries after “also recorded” stand apart in the source; their conditions may differ. Read-outs that look alike come from different tables or passages of the source.

Columns and labels:
Format in all cases: cell-based, human
[1] = system: ERα Ser-118 (67 kD ERα and 52 kD ERα variant); conditions: for Ser-118 phosphorylation of ER induced by treatment: MCF-7/T47D cells, charcoal-stripped media, 30 min, menadione 100 μM, estradiol 10 nM, other quinones at equitoxic doses
Procedure: (§1) Human breast cancer cell lines MCF7 and T47D were obtained from the American Type Culture Collection (ATCC). MCF7 cells were maintained in Dulbecco's Modification of Eagle's Medium (Cellgro) supplemented with 10% fetal bovine serum (Cellgro), 1% penicillin/streptomycin (Cellgro) and 10 μg/ml insulin (Sigma). T47D cells were maintained in RPMI (Cellgro) supplemented with 10% fetal bovine serum, 1% penicillin/streptomycin and 10 μg/ml insulin. Treatment conditions for both cell lines involved plating ˜1×10^6 cells in normal media onto 10 cm dishes, attachment and growth for 24 hours followed by a change to estrogen-free culture conditions (phenol red-free DME H-16 supplemented with 10% charcoal stripped serum, 1% penicillin/streptomycin and 10 μg/ml insulin) for an additional 24 hours. Cells were then treated as indicated for 30 minutes before extract preparation. Indicated conditions involved 30 minute pretreatments.
(§2) Following aspiration of the media and one ice cold PBS wash, cells growing on 10 cm dishes were harvested using a cell scraper and 0.7 ml of ice cold cell lyses buffer ([…], 1.5 mM MgCl2, […] KCl, 1 mM DTT, […] NaFl, 5% glycerol, 0.45% NP40 (Igepal, Sigma) and mincomplete protease inhibitors (Roche)). […] For preparation of high-salt nuclear extracts (nucleoplasm), isolated nuclei were resuspended for 20 minutes in ice cold extraction buffer (0.4 M NaCl, 25 mM Tris pH 7.5, 1 mM DTT, 20% glycerol, 10 mM NaFl and min-complete protease inhibitors (Roche)) followed by a 4° C. centrifugation at 16,000×g for 15 minutes.
(§3) Equal amounts of protein from the various extracts were mixed with 2× SDS sample buffer (125 mM Tris pH6.8, 20% glycerol, 2% SDS, 0.28 M 2-mercaptoethanol and0.5% Bromphenol Blue), heated for 5 minutes at 90° C. and electrophoresed on NuPAGE 4-12% Bis-Tris gels (Invitrogen) using NuPAGE MOPS SDS running buffer (Invitrogen) and full range Rainbow recombinant protein molecular weight markers (Amersham Pharmacia). […] Membranes were then blocked for 30 minutes in blocking buffer (150 mM NaCl, 20 mM Tris pH 7.5, 0.3% Tween-20 and 4% Nonfat dry milk powerby weight).

[2] = system: ERα Ser-167 (67 kD ERα and 52 kD ERα variant); conditions: MCF7 nuclear extracts, 30 min
Procedure: as §1, §2, §3

[3] = system: NF-κB p50; experiment: Nuclear translocation of NF-κB p50 in MCF-7 cultures; conditions: 10 μM, 30 min
[4] = system: NF-κB p65; experiment: Nuclear translocation of NF-κB p65 in MCF-7 cultures; conditions: 10 μM, 30 min
[5] = system: NFκB; experiment: NFκB DNA-binding by EMSA, nuclear extracts of menadione treated MCF-7 cells; conditions: MCF-7, menadione 100 μM × 30 min
Procedure: PS-341 was kindly provided by Millennium Pharmaceuticals Inc. (Cambridge, Mass.). […] For assessment of combined treatment effects on cell viability, 2×10^4 cells (MCF-7, MCF-7/HER2, BT474) grown in 24-well plates were first treated with tamoxifen (dissolved in ethanol) and/or parthenolide (dissolved in DMSO); for the combination treatment pathenolide was added 4 h before addition of tamoxifen. Cell viability was measured 18 h after tamoxifen treatment using the sulforhodamine B (SRB) assay (Skehan, et al. 1990). Briefly, cells fixed with trichloroacetic acid were stained for 30 min with 0.4% SRB dissolved in 1% acetic acid. Unbound dye was removed by four washes with 1% acetic acid, and protein-bound dye was extracted with 10 mM unbuffered Tris base [tris(hydroxymethyl)aminomethane] for determination of optical density at 564 nm.
Fractionation of control and treated cells into cytoplasmic and nuclear extracts was performed as previously described (Dignam et al., 1983), with minor modification. Cells harvested on ice were washed twice with cold PBS, scraped and resuspended in 1.0 ml hypotonic buffer (20 mM HEPES, pH 7.0; 10 mM KCl; 1 mM MgCl2; 0.1% Triton X-100; 20% glycerol; 0.5 mM DTT) containing a cocktail of protease inhibitors (Mini CompleteTM protease inhibitors, Roche Diagnostics, Mannheim, Germany). The harvested cells were Dounce homogenized on ice, the mixture centrifuged at 3,000 rpm at 4° C. (5 min), and the cytoplasmic fraction separated from the nuclear pellet which was resuspended in elution buffer (20 mM HEPES, pH 7.0; 10 mM KCl; 1 mM MgCl2; 0.42 M NaCl; 0.1% Triton X-100; 20% glycerol; 0.5 mM DTT), supplemented with protease inhibitors. After 20 min at 4° C. the buffered mixture was centrifuged at 14,000 rpm at 4° C. (10 min) to obtain solubilized nuclear extracts which were then stored in aliquots at −80° C. after protein determination (Bradford; BioRad, Hercules, Calif.) and for subsequent NFkB DNA-binding assays.
NFκB DNA-binding activity was measured by two different techniques. Analogous to previous tumor extract scoring of Sp1 DNA-binding protein (Quong et al., 2002), total specific NFκB DNA-binding protein was determined by electrophoretic morbility shift assay (EMSA) as follows. A duplexed oligonucleotide probe (Promega, Madison, Wis.) with sense strand containing the decameric κB consensus binding sequence (underlined) 5′-[…]-3′(SEQ ID NO:4) was end-labeled with [γ-P32]ATP (PerkinElmer, Boston, Mass.) using T4 polynucleotide kinase (Promega, Madison, Wis.) and purified with G-50 Sephadex Bio-Spin columns (BioRad, Hercules, Calif.). […]

## CC1=CC(=O)c2ccccc2C1=O [menadione, 2-methyl-1,4-naphthoquinone]
[1]
  Ser-118 phosphorylation of ER induced by treatment: induced Ser-118 phosphorylation
[1]; listed as K3
  Ser-118 phosphorylation of ER induced by treatment: contained both 67 kD and 52 kD p-Ser-118 ERα
[1]; menadione exposures 4-6 hr
  ER isoform activation on longer exposure: further enhanced activation of the ˜52 kDa delta7 ER isoform while diminishing that of 67 kDa ER
[2]
  Ser-167 phosphorylation of ERα induced by treatment: Ser-167 phosphorylation only on the 52 kD ERα nuclear variant
[3]
  increase in nuclear translocation of NF-κB p50 vs control treated cells: > 3 fold
[4]
  increase in nuclear translocation of NF-κB p65 vs control treated cells: > 3 fold
[5]
  NFκB activation after menadione treatment (EMSA): increase in MCF-7 NFκB activation; also recorded: significantly increase MCF-7 NFκB activity
